Values quoted from earlier work, collected in patent publication US20180116952A1, “ORAL PHARMACEUTICAL COMPOSITION OF METHYL[…] METHODS OF USE THEREOF” (Lupin Atlantis Holdings SA, priority 2015, published 2018).

Tested on: patients with drug-induced refractory headache
Conditions: 60 consecutive patients with drug-induced refractory headache

Question: Which “patients in whom methylergonovine was effective” value does the source give for CCC(CO)NC(=O)[C@@H]1C=C2c3cccc4[nH]cc(c34)C[C@H]2N(C)C1.O=C(O)/C=C\C(=O)O (stereo partly shown) [methylergonovine, methylergonovine maleate] here?
Answer: 73%
